# Assay results from ChEMBL document CHEMBL4177650, “Synthesis and biological evolution of hydrazones derived from 4-(trifluoromethyl)benzohydrazide” (Bioorg Med Chem Lett, 2017).
# The source made the active and inactive calls. No cut-off for these calls is given here.
# How the values were obtained:
# [1] = test system: Mycobacterium tuberculosis; assay: Antimycobacterial activity against Mycobacterium tuberculosis H37Rv 331/88 after 14 days by micromethod; type: functional; conditions: H37Rv 331/88, 336 h
# [2] = test system: Mycobacterium tuberculosis; assay: Antimycobacterial activity against Mycobacterium tuberculosis H37Rv 331/88 after 21 days by micromethod; type: functional; conditions: H37Rv 331/88, 504 h
# Mycobacterium avium [3] = assay: Antimycobacterial activity against Mycobacterium avium 330/88 after 14 days by micromethod; type: functional; conditions: 330/88, 336 h
# Mycobacterium avium [4] = assay: Antimycobacterial activity against Mycobacterium avium 330/88 after 21 days by micromethod; type: functional; conditions: 330/88, 504 h
# Mycobacterium kansasii [5] = assay: Antimycobacterial activity against Mycobacterium kansasii 6509/80 after 7 days by micromethod; type: functional; conditions: 6509/80, 168 h
# Mycobacterium kansasii [6] = assay: Antimycobacterial activity against Mycobacterium kansasii 6509/80 after 14 days by micromethod; type: functional; conditions: 6509/80, 336 h
# Mycobacterium kansasii [7] = assay: Antimycobacterial activity against Mycobacterium kansasii 6509/80 after 21 days by micromethod; type: functional; conditions: 6509/80, 504 h
# Mycobacterium kansasii [8] = assay: Antimycobacterial activity against Mycobacterium kansasii 6509/96 after 7 days by micromethod; type: functional; conditions: 6509/96, 168 h
# Mycobacterium kansasii [9] = assay: Antimycobacterial activity against Mycobacterium kansasii 6509/96 after 14 days by micromethod; type: functional; conditions: 6509/96, 336 h
# Mycobacterium kansasii [10] = assay: Antimycobacterial activity against Mycobacterium kansasii 6509/96 after 21 days by micromethod; type: functional; conditions: 6509/96, 504 h
# Staphylococcus aureus [11] = assay: Antibacterial activity against gram-positive Staphylococcus aureus CCM 4516/08 after 24 hrs by microdilution broth method; type: functional; conditions: CCM 4516/08, 24 h
# Staphylococcus aureus [12] = assay: Antibacterial activity against gram-positive Staphylococcus aureus CCM 4516/08 after 48 hrs by microdilution broth method; type: functional; conditions: CCM 4516/08, 48 h
# Staphylococcus aureus [13] = assay: Antibacterial activity against gram-positive methicillin-resistant Staphylococcus aureus H 5996/08 after 24 hrs by microdilution broth method; type: functional; conditions: H 5996/08, 24 h
# Staphylococcus aureus [14] = assay: Antibacterial activity against gram-positive methicillin-resistant Staphylococcus aureus H 5996/08 after 48 hrs by microdilution broth method; type: functional; conditions: H 5996/08, 48 h
# [15] = test system: Staphylococcus epidermidis; assay: Antibacterial activity against gram-positive Staphylococcus epidermidis H 6966/08 after 24 hrs by microdilution broth method; type: functional; conditions: H 6966/08, 24 h
# [16] = test system: Staphylococcus epidermidis; assay: Antibacterial activity against gram-positive Staphylococcus epidermidis H 6966/08 after 48 hrs by microdilution broth method; type: functional; conditions: H 6966/08, 48 h
# Enterococcus faecalis [17] = assay: Antibacterial activity against gram-positive Enterococcus faecalis J 14365/08 after 24 hrs by microdilution broth method; type: functional; conditions: J 14365/08, 24 h
# Enterococcus faecalis [18] = assay: Antibacterial activity against gram-positive Enterococcus faecalis J 14365/08 after 48 hrs by microdilution broth method; type: functional; conditions: J 14365/08, 48 h
# Escherichia coli [19] = assay: Antibacterial activity against gram-negative Escherichia coli CCM 4517 after 24 hrs by microdilution broth method; type: functional; conditions: CCM 4517, 24 h
# Escherichia coli [20] = assay: Antibacterial activity against gram-negative Escherichia coli CCM 4517 after 48 hrs by microdilution broth method; type: functional; conditions: CCM 4517, 48 h
# Klebsiella pneumoniae [21] = assay: Antibacterial activity against gram-negative Klebsiella pneumoniae D 11750/08 after 24 to 48 hrs by microdilution broth method; type: functional, organism-based
# Pseudomonas aeruginosa = assay: Antibacterial activity against gram-negative Pseudomonas aeruginosa CCM 1961 after 48 hrs by microdilution broth method; type: functional, organism-based
# Klebsiella pneumoniae [22] = assay: Antibacterial activity against extended spectrum beta-lactamase-positive Klebsiella pneumoniae J 14368/08 after 24 to 48 hrs by microdilution broth method; type: functional, organism-based
# Candida tropicalis [23] = assay: Antifungal activity against Candida tropicalis 156 after 24 hrs by microdilution broth method; type: functional; conditions: Candida tropicalis, 156, 24 h
# Candida tropicalis [24] = assay: Antifungal activity against Candida tropicalis 156 after 48 hrs by microdilution broth method; type: functional; conditions: Candida tropicalis, 156, 48 h
# Pichia kudriavzevii [25] = assay: Antifungal activity against Candida krusei E28 after 24 hrs by microdilution broth method; type: functional; conditions: E28, 24 h
# Pichia kudriavzevii [26] = assay: Antifungal activity against Candida krusei E28 after 48 hrs by microdilution broth method; type: functional; conditions: E28, 48 h
# Nakaseomyces glabratus [27] = assay: Antifungal activity against Candida glabrata 20/I after 24 hrs by microdilution broth method; type: functional
# Nakaseomyces glabratus [28] = assay: Antifungal activity against Candida glabrata 20/I after 48 hrs by microdilution broth method; type: functional
# [29] = test system: Trichophyton mentagrophytes; assay: Antifungal activity against Trichophyton mentagrophytes 445 after 72 hrs by microdilution broth method; type: functional; conditions: Trichophyton mentagrophytes, 445, 72 h
# [30] = test system: Trichophyton mentagrophytes; assay: Antifungal activity against Trichophyton mentagrophytes 445 after 120 hrs by microdilution broth method; type: functional; conditions: Trichophyton mentagrophytes, 445, 120 h
# Candida albicans = assay: Antifungal activity against Candida albicans ATCC 44859 after 24 to 48 hrs by microdilution broth method; type: functional, organism-based
# Trichosporon asahii = assay: Antifungal activity against Trichosporon asahii 1188 after 24 to 48 hrs by microdilution broth method; type: functional, organism-based
# Aspergillus fumigatus = assay: Antifungal activity against Aspergillus fumigatus 231 after 24 to 48 hrs by microdilution broth method; type: functional, organism-based
# Lichtheimia corymbifera = assay: Antifungal activity against Absidia corymbifera 272 after 24 to 48 hrs by microdilution broth method; type: functional, organism-based
# HepG2 [31] = assay: Cytostatic activity against human HepG2 cells incubated overnight followed by compound wash measured after 72 hrs by MTT assay; type: ADME, cell-based; conditions: HepG2, 72 h
# MONO-MAC-6 [32] = assay: Cytostatic activity against human MONO-MAC-6 cells incubated overnight followed by compound wash measured after 72 hrs by MTT assay; type: ADME, cell-based; conditions: MONO-MAC-6, 72 h
# HepG2 [33] = assay: Cytotoxicity against human HepG2 cells after overnight incubation by MTT assay; type: cell-based
# MONO-MAC-6 [34] = assay: Cytotoxicity against human MONO-MAC-6 cells after overnight incubation by MTT assay; type: functional, cell-based
# [35] = Cytotoxicity against mouse bone marrow macrophages after overnight incubation by MTT assay; conditions: BMDM
# [36] = Selectivity index, ratio of IC50 for human HepG2 cells to MIC for Candida glabrata 20/I; type: toxicity; conditions: read-out: Selectivity Index
# [37] = Selectivity index, ratio of IC50 for human HepG2 cells to MIC for Trichophyton mentagrophytes 445; type: toxicity; conditions: read-out: Selectivity Index
smiles,measurement,setting,value
O=C(N/N=C/c1ccccc1O)c1ccc(C(F)(F)F)cc1,MIC,[1],125 µM
same,MIC,[2],250 µM
same,MIC,Mycobacterium avium [3],125 µM
same,MIC,Mycobacterium avium [4],250 µM
same,MIC,Mycobacterium kansasii [5],250 µM
same,MIC,Mycobacterium kansasii [6],250 µM
same,MIC,Mycobacterium kansasii [7],250 µM
same,MIC,Mycobacterium kansasii [8],250 µM
same,MIC,Mycobacterium kansasii [9],250 µM
same,MIC,Mycobacterium kansasii [10],250 µM
same,MIC,Staphylococcus aureus [11],500 µM
same,MIC,Staphylococcus aureus [12],> 500 µM
same,MIC,Staphylococcus aureus [13],500 µM
same,MIC,Staphylococcus aureus [14],> 500 µM
same,MIC,[15],250 µM
same,MIC,[16],500 µM
same,MIC,Enterococcus faecalis [17],250 µM
same,MIC,Enterococcus faecalis [18],250 µM
same,MIC,Escherichia coli [19],500 µM
same,MIC,Escherichia coli [20],500 µM
same,Activity,Klebsiella pneumoniae [21],inactive
same,Activity,Pseudomonas aeruginosa,inactive
same,Activity,Klebsiella pneumoniae [22],inactive
same,MIC,Candida tropicalis [23],> 125 µM
same,MIC,Candida tropicalis [24],> 125 µM
same,MIC,Pichia kudriavzevii [25],> 125 µM
same,MIC,Pichia kudriavzevii [26],> 125 µM
same,MIC,Nakaseomyces glabratus [27],3.9 µM
same,MIC,Nakaseomyces glabratus [28],15.6 µM
same,MIC,[29],7.81 µM
same,MIC,[30],15.6 µM
same,Activity,Candida albicans,inactive
same,Activity,Trichosporon asahii,inactive
same,Activity,Aspergillus fumigatus,inactive
same,Activity,Lichtheimia corymbifera,inactive
same,IC50,HepG2 [31],6.2 µM
same,IC50,MONO-MAC-6 [32],1.7 µM
same,IC50,HepG2 [33],> 100 µM
same,IC50,MONO-MAC-6 [34],2.28 µM
same,IC50,[35],> 100 µM
same,selectivity ratio,[36],> 6.4
same,selectivity ratio,[37],> 6.4
